Measurements as given in US20080096967A1, “Formulations for Injection of Catecholic Butanes, Including Ndga Compounds, Into Animals” (priority 2005, published 2008).

Assay: 40 mg/mL M4N/PEG 300 stability: RP-HPLC analysis
Type: physicochemical
Method: The stability of 40 mg/mL M4N dissolved in 100% PEG 300 was evaluated up to 24 hours incubation at 30° C., 45° C. and 60° C. A stock 40 mg/mL M4N in PEG 300 was prepared at 60° C., following the procedure set forth in Example 17. Subsequently, aliquots were removed and incubated at the appropriate temperature. Samples were rotated at 450 rpm during the entire course of incubation. Visual observations and RP-HPLC data were collected throughout. […] The formation of crystals coincided with a loss of soluble M4N (Table 30). The 40 mg/mL M4N/PEG 300 samples incubated at 45° C. and 60° C. were stable after 24 hours incubation as assessed by visual observations and RP-HPLC analysis (Tables 29 and 30).

COc1ccc(C[C@@H](C)[C@@H](C)Cc2ccc(OC)c(OC)c2)cc1OC [Formulation M4N, meso-1,4-bis(3,4-dimethoxyphenyl)-2,3-dimethylbutane]
impurities peaks (40 mg/mL M4N/PEG 300, 30° C., 45° C. and 60° C.): No changes
loss in soluble M4N (40 mg/mL M4N/PEG 300, 24 hours at 30° C.): > 5%
